One block for each compound: values may come before it.
Tested on: midbrain dopaminergic neurons
Test: Dopamine (DA) uptake assay in primary midbrain cultures
Assay type: cell-based, rat
Conditions: for activity at 5 µM: compound concentration 5 μM; for activity at 1.25 µM: compound concentration 1.25 μM; for activity at 20 µM: compound concentration 20 μM; for activity at 2.5 µM: compound concentration 2.5 μM; for activity at 10 µM: compound concentration 10 μM; for activity at 0.6 µM: compound concentration 0.6 μM; for activity at 40 µM: compound concentration 40 μM
Experimental: Primary midbrain cultures were prepared from rat embryo ventral mesencephalon as described previously by Lin et al (1994). In brief, rostral mesencephalic tegmentum of embryonic day 16 rat embryos was collected in DMEM/F12 (Hyclone SH30023.01) containing 2 mM glutamine on ice, The tissue was treated with 0.1% trypsin in Hanks' balanced salt solution (HBSS, Gibco 14175-095) for 15 min at 37° C. and dissociated mechanically by mild trituration with a fire-polished glass pipet in growth medium plus 2% heat-inactivated fetal bovine serum (FBS). The growth medium consisted of equal volumes of Dulbecco's minimal essential medium DMEM (Gibco 12100-046) and HAM's F12 nutrient mixture (Gibco 21700-075) supplemented with 33 mM glucose, 13 mM sodium bicarbonate, 5 mM HEPES, 2 mM glutamine, 25 μg/ml insulin, 100 μg/ml transferrin, 60 μM putrescine, 20 nM progesterone, 30 nM sodium selenite, 5 U/ml penicillin G and 5 μg/ml streptomycin. 24-well tissue culture plate was coated by adding 15 μg/ml poly-1-ornithine hydrobromide solution at 0.5 ml/well, incubated at room temperature for 1 hr. The coating solution was removed and the well washed 3 times with distilled water and one wash with HBSS. The dissociated cells were plated onto polyornithine-coated wells at 250,000-350,000 trypan blue-excluding viable cells per well in 500 μl of above medium containing 1% FBS. After 3 h when most of the cells had adhered to the bottom of the well, the medium was replaced with 500 μl of fresh medium without FBS. A serial dilution of the sample to be assayed for trophic activity was added to each well in duplicate at the time of medium change or within 24 h thereafter. Unless otherwise stated, cultures were incubated at 37° C. without any further medium change up to 7 days. Primary hindbrain cultures were prepared as described for the midbrain cultures except that the rostral raphe region (instead of the rostral mesencephalon) was dissected and trypsinized for 20 (instead of 15) min.
[^3H]DA uptake was measured in cultures at day 7, and all the solutions were maintained at 37° C. The growth medium was removed, and the cultures were rinsed twice with 0.25 ml of uptake buffer, which consists of HBSS (Gibco 11201-092) supplemented with 28 mM glucose, 15 mM HEPES, 1 mM ascorbic acid (an antioxidant), and […] pargyline (a monoamine oxidase inhibitor). The cultures were then incubated with 0.25 ml of fresh uptake buffer containing 50 nM [^3H]DA (NEN/DuPont) for 20 min at 37° C. [^3H]DA uptake was stopped by removing the incubation mixture, and cells were then washed twice with 0.5 ml of the uptake buffer at room temperature. To release [^3H]DA from the cells, the cultures were lysed with 0.2 ml of 0.1 N NaOH for 1 h at room temperature, the lysate was then added to 1 ml of Microscint-20 (Packard 6013621), and counted for radioactivity in a microplate scintillation counter (Packard TopCount, NXT). Background values were obtained by adding to the uptake buffer 0.5 mM GBR-12909, a specific inhibitor of the high-affinity uptake pump of the dopaminergic neurons, and were usually <5% of the ^3H uptake in untreated control cultures. Forskolin (Fk, 25 μM) was employed as a positive control.

[1] = Rattus norvegicus, Neuron, midbrain culture, read-out: DA uptake % of control

Compound: CCc1ccccc1/C=C\C(=O)Nc1ccc(S(=O)(=O)Nc2nc[nH]n2)cc1 [R″]
activity at 5 µM [1]: 290%

Compound: O=C(/C=C/c1ccc(F)cc1Cl)Nc1ccc(S(=O)(=O)Nc2nccs2)cc1 [W′′′′]
activity at 1.25 µM [1]: 190%

Compound: CCc1nnc(NS(=O)(=O)c2ccc(NC(=O)c3ccc(Cl)cc3)cc2)s1 [X]
activity at 20 µM [1]: 140%

Compound: C/C(O)=C\C(=N)NS(=O)(=O)c1ccc(NC(=O)/C=C/c2ccccc2)cc1 [X′′′]
activity at 5 µM [1]: 140%

Compound: O=C(/C=C/c1ccccc1Cl)Nc1ccc(S(=O)(=O)Nc2ccccn2)cc1 [F″]
activity at 2.5 µM [1]: 180%

Compound: CCOc1ccccc1/C=C/C(=O)Nc1ccc(S(=O)(=O)Nc2nccs2)cc1 [R′′′′]
activity at 2.5 µM [1]: 170%

Compound: Cc1ccccc1/C=C/C(=O)Nc1ccc(S(=O)(=O)Nc2nc[nH]n2)cc1 [D′′′′′]
activity at 2.5 µM [1]: 260%

Compound: O=C(/C=C/c1ccccc1I)Nc1ccc(S(=O)(=O)Nc2nccs2)cc1 [Z″]
activity at 1.25 µM [1]: 300%

Compound: O=C(Nc1ccc(S(=O)(=O)Nc2nccs2)cc1)c1cccc(C(F)(F)F)c1 [V]
activity at 10 µM [1]: 220%

Compound: O=C(/C=C/c1ccccc1O)Nc1ccc(S(=O)(=O)Nc2nccs2)cc1 [P′′′]
activity at 10 µM [1]: 150%

EC50 (Rattus norvegicus, Neuron, midbrain culture, FIG. 36, read-out: half-maximal effective concentration (EC50) for DA uptake stimulation): ~200 nM
Compound: O=C(Nc1ccc(S(=O)(=O)Nc2nc[nH]n2)cc1)c1ccc2ccccc2c1 [Y′]
cytotoxicity in midbrain culture (20 μM): no cytotoxicity | activity at 1.25 µM [1]: 290%

Compound: O=C(/C=C/c1ccccc1Br)Nc1ccc(S(=O)(=O)Nc2nc[nH]n2)cc1 [D″]
activity at 1.25 µM [1]: 310%

Compound: O=C(CCN1C(=O)S/C(=C\c2ccc(Cl)cc2)C1=O)Nc1ccc(S(=O)(=O)Nc2nccs2)cc1 [S′]
activity at 1.25 µM [1]: 150%

Compound: O=C(Nc1ccc(S(=O)(=O)Nc2nccs2)cc1)c1sc2cc(Cl)ccc2c1Cl [T′]
activity at 0.6 µM [1]: 140%

Compound: COc1ccc(/C=C/C(=O)Nc2ccc(S(=O)(=O)Nc3nccs3)cc2)cc1 [I′′′]
activity at 5 µM [1]: 140%

Compound: Cc1cc(NS(=O)(=O)c2ccc(NC(=O)/C=C/c3c(Cl)cccc3Cl)cc2)no1 [I]
activity at 0.7 µM (Rattus norvegicus, Neuron, compound concentration 0.7 μM, midbrain culture, read-out: DA uptake % of control): 150%

Compound: O=C(/C=C/c1ccc(F)cc1)Nc1ccc(S(=O)(=O)Nc2nccs2)cc1 [O]
activity at 20 µM [1]: 240%

Compound: Cc1cccc(C(=O)Nc2ccc(S(=O)(=O)Nc3nccs3)cc2)c1 [T]
activity at 10 µM [1]: 140%

Compound: O=C(/C=C/c1ccc(Cl)cc1Cl)Nc1ccc(S(=O)(=O)Nc2nccs2)cc1 [V″]
activity at 0.3 µM (Rattus norvegicus, Neuron, compound concentration 0.3 μM, midbrain culture, read-out: DA uptake % of control): 250%

Compound: O=C(Nc1ccc(S(=O)(=O)Nc2nccs2)cc1)c1cc2ccccc2[nH]1 [K′′′′]
activity at 2.5 µM [1]: 150%

Compound: O=C(/C=C/c1cccc(OC(F)(F)F)c1)Nc1ccc(S(=O)(=O)Nc2nccs2)cc1 [V′′′′]
activity at 1.25 µM [1]: 200%

Compound: O=C(Nc1ccc(S(=O)(=O)Nc2nccs2)cc1)c1sc2ccccc2c1Cl [D′]
activity at 0.6 µM [1]: 170%

Compound: O=C(/C=C/c1ccccc1Cl)Nc1ccc(S(=O)(=O)Nc2ncccn2)cc1 [C′]
activity at 2.5 µM [1]: 140%

Compound: Cc1ccccc1/C=C/C(=O)Nc1ccc(S(=O)(=O)Nc2nccs2)cc1 [T″]
activity at 2.5 µM [1]: 230%

Compound: O=C(/C=C/c1ccccc1)Nc1ccc(S(=O)(=O)Nc2nncs2)cc1 [T′′′]
activity at 40 µM [1]: 150%

Compound: COc1cccc(/C=C/C(=O)Nc2ccc(S(=O)(=O)Nc3nccs3)cc2)c1 [J′′′]
activity at 2.5 µM [1]: 140%

Compound: Cc1ccc(/C=C/C(=O)Nc2ccc(S(=O)(=O)Nc3onc(C)c3C)cc2)cc1 [N′]
activity at 2.5 µM [1]: 155%

Compound: O=C(/C=C/c1cccc(Cl)c1)Nc1ccc(S(=O)(=O)Nc2nc[nH]n2)cc1 [B′′′′′]
activity at 1.25 µM [1]: 230%

Compound: COc1cc(Br)c(/C=C/C(=O)Nc2ccc(S(=O)(=O)Nc3nccs3)cc2)cc1OC [B′′′]
activity at 1.25 µM [1]: 260%

Compound: O=C(Nc1ccc(S(=O)(=O)Nc2nccs2)cc1)/C(F)=C/c1ccccc1 [O′′′′]
activity at 10 µM [1]: 200%

Compound: Cc1cccc(/C=C/C(=O)Nc2ccc(S(=O)(=O)Nc3nccs3)cc2)c1 [G′′′′]
activity at 2.5 µM [1]: 220%

Compound: COc1ccccc1/C=C/C(=O)Nc1ccc(S(=O)(=O)Nc2nc[nH]n2)cc1 [Y″]
activity at 2.5 µM [1]: 180%

Compound: Cc1nc(NS(=O)(=O)c2ccc(NC(=O)/C=C/c3ccccc3Cl)cc2)sc1C(=O)O [Y′′′]
activity at 10 µM [1]: 160%

Compound: O=C(/C=C/c1ccccc1[N+](=O)[O-])Nc1ccc(S(=O)(=O)Nc2nccs2)cc1 [P′′′′]
activity at 2.5 µM [1]: 150%

Compound: O=C(/C=C/c1cccc(C(F)(F)F)c1)Nc1ccc(S(=O)(=O)Nc2nccs2)cc1 [H′′′′]
activity at 1.25 µM [1]: 240%

Compound: CC(C)(C)c1ccc(C(=O)Nc2ccc(S(=O)(=O)Nc3nccs3)cc2)cc1 [H]
activity at 2.5 µM [1]: 150%

Compound: Cc1ccc(/C=C/C(=O)Nc2ccc(S(=O)(=O)Nc3nccs3)cc2)cc1 [E]
activity at 2.5 µM [1]: 260%

Compound: O=C(/C=C/c1ccc(Cl)cc1)Nc1ccc(S(=O)(=O)Nc2ncccn2)cc1 [A′]
activity at 1.25 µM [1]: 140%

Compound: Cc1noc(NS(=O)(=O)c2ccc(NC(=O)/C=C/c3ccccc3Cl)cc2)c1C [L′]
activity at 5 µM [1]: 140%

Compound: O=C(COc1ccc(Cl)cc1)Nc1ccc(S(=O)(=O)Nc2nccs2)cc1 [Compound D]
activity at 20 µM [1]: 210%

Compound: O=C(/C=C/c1ccccc1Cl)Nc1ccc(S(=O)(=O)Nc2nncs2)cc1 [U′′′]
activity at 10 µM [1]: 180%

Compound: Cc1ccc(C)c(/C=C/C(=O)Nc2ccc(S(=O)(=O)Nc3nccs3)cc2)c1 [J″]
activity at 1.25 µM [1]: 320%

Compound: O=C(/C=C/c1ccc(Br)cc1)Nc1ccc(S(=O)(=O)Nc2nccs2)cc1 [O″]
activity at 2.5 µM [1]: 290%

Compound: O=C(Nc1ccc(S(=O)(=O)Nc2nccs2)cc1)c1cc2ccccc2oc1=O [F′′′′]
activity at 0.25 µM (Rattus norvegicus, Neuron, compound concentration 0.25 μM, midbrain culture, read-out: DA uptake % of control): 160%

Compound: Cc1ccc(C(=O)Nc2ccc(S(=O)(=O)Nc3nccs3)cc2)cc1 [R]
activity at 20 µM [1]: 140%

Compound: CCOc1ccc(C(=O)Nc2ccc(S(=O)(=O)Nc3nccs3)cc2)cc1 [L]
activity at 10 µM [1]: 160%

Compound: O=C(/C=C/c1ccc(Oc2ccccc2)cc1)Nc1ccc(S(=O)(=O)Nc2nccs2)cc1 [N]
activity at 2.5 µM [1]: 170%

Compound: O=C(/C=C/c1cccc(O)c1)Nc1ccc(S(=O)(=O)Nc2nncs2)cc1 [V′′′]
activity at 2.5 µM [1]: 160%

Compound: COc1ccccc1/C=C\C(=O)Nc1ccc(S(=O)(=O)Nc2nccs2)cc1 [L′′′′]
activity at 2.5 µM [1]: 200%

Compound: CCOc1cccc(/C=C/C(=O)Nc2ccc(S(=O)(=O)Nc3nccs3)cc2)c1 [S′′′′]
activity at 5 µM [1]: 170%

Compound: CCc1nnc(NS(=O)(=O)c2ccc(NC(=O)/C=C/c3ccc(OC)cc3OC)cc2)s1 [U]
activity at 10 µM [1]: 150%

Compound: Cc1ccnc(NS(=O)(=O)c2ccc(NC(=O)/C=C/c3cccc(Cl)c3)cc2)n1 [S]
activity at 1.4 µM (Rattus norvegicus, Neuron, compound concentration 1.4 μM, midbrain culture, read-out: DA uptake % of control): 220%

Compound: O=C(/C=C/c1ccco1)Nc1ccc(S(=O)(=O)Nc2ccco2)cc1 [G]
activity at 40 µM [1]: 190%

Compound: Cc1ccccc1/C=C/C(=O)Nc1ccc(S(=O)(=O)Nc2nc[nH]n2)cc1 [X′′′′]
activity at 1.25 µM [1]: 260%

Compound: O=C(/C=C/c1c(Cl)cccc1Cl)Nc1ccc(S(=O)(=O)Nc2ccccn2)cc1 [A″]
activity at 1.25 µM [1]: 340%

Compound: O=C(CCN1C(=O)S/C(=C\c2ccccc2)C1=O)Nc1ccc(S(=O)(=O)Nc2nccs2)cc1 [Q′]
activity at 5 µM [1]: 180%

Compound: O=C(/C=C/c1cc(C(F)(F)F)ccc1C(F)(F)F)Nc1ccc(S(=O)(=O)Nc2nccs2)cc1 [X″]
activity at 1.25 µM [1]: 245%

Compound: O=C(/C=C/c1ccccc1F)Nc1ccc(S(=O)(=O)Nc2ccccn2)cc1 [Z′′′]
activity at 2.5 µM [1]: 140%

Compound: O=C(/C=C/c1ccoc1)Nc1ccc(S(=O)(=O)Nc2nccs2)cc1 [N″]
activity at 20 µM [1]: 240%

Compound: O=C(/C=C/c1cccc(F)c1)Nc1ccc(S(=O)(=O)Nc2nccs2)cc1 [I′′′′]
activity at 2.5 µM [1]: 200%

Compound: Cc1ccc(/C=C/C(=O)Nc2ccc(S(=O)(=O)Nc3ccccn3)cc2)cc1 [C′′′′]
activity at 2.5 µM [1]: 160%

Compound: CCc1nnc(NS(=O)(=O)c2ccc(NC(=O)c3ccc(Cl)cc3Cl)cc2)s1 [B′]
activity at 5 µM [1]: 150%

Reference: patent publication US7671077B2, “Neuroprotective small organic molecules, compositions and uses related thereto” (priority 2004, dated 2010)
